According to PubChem BioAssay AID2060342 (Molecular Pharmacology Branch, DTP, NCI, 2025):
Several values for one entry are separate records, joined by “and”; a condition that tells them apart may be missing. Equal entries are not always repeated.

Tested on: 171881-019-R-J1-PDC multicell spheroid viability
Assay: Anticancer human tumor 171881-019-R-J1-PDC patient-derived invasive breast carcinoma cell line growth inhibition [IpAb]
Details: for viability, T/C: stronger effect = lower value
Description: Combinatorial screen of targeted agents with ipatasertib and abemaciclib in multi-cell type tumor spheroids
A high-throughput screen of multi-cell type tumor spheroids was designed to identify active combinations of targeted small molecules and ipatasertib or abemaciclib. Complex spheroids include a stromal component modeled by human endothelial cells (HUVEC) and fibroblasts modeled by human mesenchymal stem cells (MSCs). The concentration ranges selected for each drug and investigational agent were based upon clinically achievable concentrations if the clinical Cmax of the agent was known.
Compounds. The drugs and investigational agents: ipatasertib (NSC767898), abemaciclib(NSC768073), selumetinib (NSC741078), trametinib (758246), adavosertib (NSC754352), everolimus (NSC733504), sapanisertib (NSC764658), vemurafenib (NSC761431), venetoclax (NSC766270), copanlisib (NSC809693), apelisib (NSC765974), palbociblib (NSC758247), vemurafenib (NSC761431), dabrafenib (NSC764134), ravoxertinib (NSC781343), BMS-387032 (NSC767048), sotorasib (NSC818433), talazoparib (NSC767125) and afursertib (NSC778305), were obtained from the National Cancer Institute (NCI) Developmental Therapeutics Program Chemical Repository. The FDA-approved anticancer drug set is available from the NCI Developmental Therapeutics Program. […] The stock solutions were prepared in dimethyl sulfoxide (DMSO, Sigma-Aldrich, St. Louis, MO, cat. D2650) at 800-fold the tested concentration and stored at -70 degrees C prior to their use. All drugs and investigational agents were tested over a range starting from a high concentration at or near the clinical Cmax and decreasing in half-log increments. If the clinical Cmax for an agent had not been determined, the highest concentration tested was 10 microM.
NCI60 Cell Culture. NCI60 cell lines were obtained from the NCI Developmental Therapeutics Program Tumor Repository. For each lot of cells, the Repository performed Applied Biosystems AmpFLSTR Identifiler testing with PCR amplification to confirm consistency with the published Identifier STR profile for each cell line. Cells were kept in continuous culture for no more than 20 passages. The optimal seeding densities for each of the cell lines at each time point assessed were determined prior to performing the concentration response studies. Briefly, the NCI60 human tumor lines were grown as monolayers in RPMI 1640 medium supplemented with 10% FBS and 2 mmol/L L-glutamine.
An additional 9 lines were from the NCI60 cell line panel including MDA-MB-231 breast carcinoma, MDA-MB-468 breast carcinoma, MCF7 breast carcinoma, Hs578T breast carcinoma, MALME-3M melanoma, SK-MEL-2 melanoma, SK-OV-3 ovarian carcinoma, DU-145 prostate carcinoma, PC-3 prostate carcinoma, all cell lines along with major genetic alterations are listed on Table 2. Pooled donor human umbilical vein endothelial cells (HUVEC, Lonza, cat. CC-2519) and human mesenchymal stem cells (hMSC, Lonza, cat. PT-2501) were purchased from Lonza (Walkersville, MD).
PDMR cell lines were grown in complete medium (DC medium): Dulbecco's modified Eagle's medium (DMEM)/F12 supplemented with 5% fetal bovine serum (FBS), 2 mM L-glutamine, 100 U/mL penicillin and 100 µg/ml streptomycin, 0.4 µg/ml hydrocortisone, 10 ng/ml epidermal growth factor (EGF) recombinant human protein, 24 µg/mL adenine, and 0.1 mg/mL primocin. During culture from frozen stock vials, PDMR cells were cultured in the same medium containing 10 µM Y-27632 (see Table 3). The PDCs were cultured in complete DMEM/F12 media without 10 microM Y-27632 dihydrochloride for at least two passages prior to the screen. The pooled donor HUVEC and hMSC were cultured in endothelial cell growth medium 2 (PromoCell, Heidelberg, Germany, cat. C-22011) and mesenchymal stem cell growth medium 2 (PromoCell, cat. C-28009), respectively. For all experiments, HUVEC and hMSC were used at passages </=5.
[…]
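Further: spheroids exposed to the agents for seven days before readout.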

**Q.** What does the source list for `Cc1nc(NC(=O)N2CCCC2C(N)=O)sc1-c1ccnc(C(C)(C)C(F)(F)F)c1` (stereo not given)?
**A.** viability, T/C (compound 0.0316 µM): 117% and 108%; viability, T/C (compound 0.1 µM): 128% and 98.1%; viability, T/C (compound 0.316 µM): 84.2% and 67.8%; viability, T/C (compound 1 µM): 36.8% and 38.8%; viability, T/C (compound 3.16 µM): 16.5% and 12.6%; viability, T/C (compound 10 µM): 2.78% and 1.93%; IC50 (curve of compound): 734 nM and 640 nM

**Q.** Which viability, T/C (compound 0.00949 µM) does the source give for `Cn1cnc2c(F)c(Nc3ccc(Br)cc3Cl)c(C(=O)NOCCO)cc21` here?
**A.** The viability, T/C was 113% and 108%.

**Q.** What about the viability, T/C (compound 0.03 µM) of the same compound?
**A.** The viability, T/C was 106% and 96.2%.

**Q.** What about the viability, T/C (compound 0.0949 µM) of the same compound?
**A.** Its viability, T/C is 124% and 98%.

**Q.** And the viability, T/C (compound 0.3 µM)?
**A.** Its viability, T/C is 117% and 99.3%.

**Q.** And the viability, T/C (compound 0.949 µM)?
**A.** Its viability, T/C is 70.1% and 49.4%.

**Q.** What about the viability, T/C (compound 3 µM) of the same compound?
**A.** Its viability, T/C is 18.2% and 11.6%.

**Q.** And the IC50 (curve of compound)?
**A.** The IC50 was 1480 nM and 935 nM.

**Q.** With `Cn1ncc(Cl)c1-c1cc(C(=O)NC(CN)Cc2cccc(F)c2)sc1Cl` (stereo not given) as the compound, how does the viability, T/C (compound 0.0316 µM) read?
**A.** Its viability, T/C is 107% and 112%.

**Q.** And the viability, T/C (compound 0.1 µM)?
**A.** The viability, T/C was 64.8% and 67.2%.

**Q.** And the viability, T/C (compound 0.316 µM)?
**A.** Its viability, T/C is 29.7% and 27.4%.

**Q.** And the viability, T/C (compound 1 µM)?
**A.** Its viability, T/C is 11.8% and 13.5%.

**Q.** And the viability, T/C (compound 3.16 µM)?
**A.** The viability, T/C was 3.57% and 3.17%.

**Q.** What about the viability, T/C (compound 10 µM) of the same compound?
**A.** The viability, T/C was 0.84% and 0.66%.

**Q.** And the IC50 (curve of compound)?
**A.** The IC50 was 163 nM and 167 nM.

**Q.** `Cn1nccc1Nc1nccc(-c2ccn(C(CO)c3ccc(Cl)c(F)c3)c(=O)c2)n1` (stereo not given) was tested. Which viability, T/C (compound 0.0316 µM) did it give?
**A.** The viability, T/C was 107% and 117%.

**Q.** What about the viability, T/C (compound 0.1 µM) of the same compound?
**A.** Its viability, T/C is 108% and 112%.

**Q.** What about the viability, T/C (compound 0.316 µM) of the same compound?
**A.** The viability, T/C was 77.1% and 79%.

**Q.** What about the viability, T/C (compound 1 µM) of the same compound?
**A.** Its viability, T/C is 39.2% and 41.8%.

**Q.** What about the viability, T/C (compound 3.16 µM) of the same compound?
**A.** Its viability, T/C is 22.2% and 22.1%.

**Q.** What about the viability, T/C (compound 10 µM) of the same compound?
**A.** The viability, T/C was 19.1% and 18.8%.

**Q.** And the IC50 (curve of compound)?
**A.** Its IC50 is 713 nM and 761 nM.

**Q.** For `Cn1ncnc1[C@H]1c2n[nH]c(=O)c3cc(F)cc(c23)N[C@@H]1c1ccc(F)cc1`, which viability, T/C (compound 0.000316 µM) is on record?
**A.** Its viability, T/C is 100% and 93.4%.

**Q.** What about the viability, T/C (compound 0.001 µM) of the same compound?
**A.** Its viability, T/C is 111% and 93.9%.

**Q.** What about the viability, T/C (compound 0.00316 µM) of the same compound?
**A.** The viability, T/C was 116%.

**Q.** What about the viability, T/C (compound 0.01 µM) of the same compound?
**A.** Its viability, T/C is 108% and 101%.

**Q.** What about the viability, T/C (compound 0.0316 µM) of the same compound?
**A.** Its viability, T/C is 109% and 111%.

**Q.** What about the viability, T/C (compound 0.1 µM) of the same compound?
**A.** The viability, T/C was 128% and 123%.

**Q.** And the IC50 (curve of compound)?
**A.** The IC50 was greater than 100 nM.

**Q.** What does the source list for `Cn1cnc2c(F)c(Nc3ccc(Br)cc3Cl)c(C(=O)NOCCO)cc21` + CC(C)NCC(C(=O)N1CCN(c2ncnc3c2C(C)CC3O)CC1)c1ccc(Cl)cc1?
**A.** IC50 (curve of first compound, second compound 0.1 µM): 540 nM; IC50 (curve of first compound, second compound 0.316 µM): 188 nM; IC50 (curve of first compound, second compound 1 µM): < 9.49 nM; IC50 (curve of first compound, second compound 3.16 µM): < 9.49 nM; IC50 (curve of first compound, second compound 10 µM): < 9.49 nM; viability, T/C (second compound 0.1 µM, first compound 0.00949 µM): 122%; viability, T/C (second compound 0.1 µM, first compound 0.03 µM): 125%; viability, T/C (second compound 0.1 µM, first compound 0.0949 µM): 107%; viability, T/C (second compound 0.1 µM, first compound 0.3 µM): 75.1%; viability, T/C (second compound 0.1 µM, first compound 0.949 µM): 26.3%; viability, T/C (second compound 0.1 µM, first compound 3 µM): 8.66%; viability, T/C (second compound 0.316 µM, first compound 0.00949 µM): 72.7%; viability, T/C (second compound 0.316 µM, first compound 0.03 µM): 69.6%; viability, T/C (second compound 0.316 µM, first compound 0.0949 µM): 62.4%; viability, T/C (second compound 0.316 µM, first compound 0.3 µM): 41.9%; viability, T/C (second compound 0.316 µM, first compound 0.949 µM): 14.2%; viability, T/C (second compound 0.316 µM, first compound 3 µM): 4.26%; viability, T/C (second compound 1 µM, first compound 0.00949 µM): 24.5%; viability, T/C (second compound 1 µM, first compound 0.03 µM): 26.6%; viability, T/C (second compound 1 µM, first compound 0.0949 µM): 21.2%; viability, T/C (second compound 1 µM, first compound 0.3 µM): 13.3%; viability, T/C (second compound 1 µM, first compound 0.949 µM): 4.61%; viability, T/C (second compound 1 µM, first compound 3 µM): 1.63%; viability, T/C (second compound 3.16 µM, first compound 0.00949 µM): 8.87%; viability, T/C (second compound 3.16 µM, first compound 0.03 µM): 7.75%; viability, T/C (second compound 3.16 µM, first compound 0.0949 µM): 5.99%; viability, T/C (second compound 3.16 µM, first compound 0.3 µM): 5.01%; viability, T/C (second compound 3.16 µM, first compound 0.949 µM): 1.73%; viability, T/C (second compound 3.16 µM, first compound 3 µM): 0.77%; viability, T/C (second compound 10 µM, first compound 0.00949 µM): 5.26%; viability, T/C (second compound 10 µM, first compound 0.03 µM): 3.72%; viability, T/C (second compound 10 µM, first compound 0.0949 µM): 3.22%; viability, T/C (second compound 10 µM, first compound 0.3 µM): 1.9%; viability, T/C (second compound 10 µM, first compound 0.949 µM): 1.16%; viability, T/C (second compound 10 µM, first compound 3 µM): 0.44%
